Earlier results as cited in patent publication US20150209399A1, “Methods For Enhacement Of Dehydroepiandrosterone Using Green Coffee Bean Extract” (Applied Food Sciences, Inc., priority 2013, published 2015).

Columns and labels:
[1] = tested on: platelet aggregation; conditions: four of the five test subjects who received DHEA; second week
[2] = tested on: human coxsackievirus B4 strain
[3] = 300 mg DHEA per day orally, second week; baseline 316.2
[4] = human, in vivo

| Compound | rate of platelet aggregation [1] | mortality of infected animals treated with DHEA ([2]; 100,000 plaque forming units/animal, about 90% mortality in infected animals) | elevation in the number of antibody forming cells ([2]; within the animal) | mean serum DHEA-S level, DHEA group [3] | half-life [4] |
| --- | --- | --- | --- | --- | --- |
| C[C@]12CCC(O)CC1=CC[C@@H]1[C@@H]2CC[C@]2(C)C(=O)CC[C@@H]12 (some centres unmarked) [DHEA, 3-hydroxyandrost-5-en-17-one] | slower rate of aggregation | 37% | 80% | 1451.9 ± 56.7 µg/dL | – |
| chlorogenic acids | – | – | – | – | less than 12 hours |
